Tested on: SEM cells
Assay: cell viability relative to DMSO control; higher = less cytotoxic
Conditions: 48 h
Method in brief: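 NOMO1 or SEM cells were plated at 500 cells/well and P12-Ichikawa cells at 1000 cells/well in 1536-well plates (5 μl), after each leukemia line had been adapted for at least four passages in each medium. Pin dosing delivered library compounds in DMSO at 11 threefold concentrations, 47 μM to 0.79 nM. CellTiter-Glo One luminescence was read after 48 h at 37°C. Viability is reported as a per-plate percentage of DMSO wells, with cell-free wells as background.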

[1] = HPLM + 10% dialyzed FBS, 0.000781 µM
[2] = HPLM + 10% dialyzed FBS, 0.00234 µM
[3] = HPLM + 10% dialyzed FBS, 0.00702 µM
[4] = HPLM + 10% dialyzed FBS, 0.0211 µM
[5] = HPLM + 10% dialyzed FBS, 0.0632 µM
[6] = HPLM + 10% dialyzed FBS, 0.19 µM
[7] = HPLM + 10% dialyzed FBS, 0.569 µM
[8] = HPLM + 10% dialyzed FBS, 1.71 µM
[9] = HPLM + 10% dialyzed FBS, 5.12 µM
[10] = HPLM + 10% dialyzed FBS, 15.4 µM
[11] = HPLM + 10% dialyzed FBS, 46.1 µM
[12] = RPMI 5 mM glucose + 10% FBS, 0.000781 µM
[13] = RPMI 5 mM glucose + 10% FBS, 0.00234 µM
[14] = RPMI 5 mM glucose + 10% FBS, 0.00702 µM
[15] = RPMI 5 mM glucose + 10% FBS, 0.0211 µM
[16] = RPMI 5 mM glucose + 10% FBS, 0.0632 µM
[17] = RPMI 5 mM glucose + 10% FBS, 0.19 µM
[18] = RPMI 5 mM glucose + 10% FBS, 0.569 µM
[19] = RPMI 5 mM glucose + 10% FBS, 1.71 µM
[20] = RPMI 5 mM glucose + 10% FBS, 5.12 µM
[21] = RPMI 5 mM glucose + 10% FBS, 15.4 µM
[22] = RPMI 5 mM glucose + 10% FBS, 46.1 µM
[23] = RPMI 5 mM glucose + 10% dialyzed FBS, 0.000781 µM
[24] = RPMI 5 mM glucose + 10% dialyzed FBS, 0.00234 µM
[25] = RPMI 5 mM glucose + 10% dialyzed FBS, 0.00702 µM
[26] = RPMI 5 mM glucose + 10% dialyzed FBS, 0.0211 µM
[27] = RPMI 5 mM glucose + 10% dialyzed FBS, 0.0632 µM
[28] = RPMI 5 mM glucose + 10% dialyzed FBS, 0.19 µM
[29] = RPMI 5 mM glucose + 10% dialyzed FBS, 0.569 µM
[30] = RPMI 5 mM glucose + 10% dialyzed FBS, 1.71 µM
[31] = RPMI 5 mM glucose + 10% dialyzed FBS, 5.12 µM
[32] = RPMI 5 mM glucose + 10% dialyzed FBS, 15.4 µM
[33] = RPMI 5 mM glucose + 10% dialyzed FBS, 46.1 µM

SMILES | cell viability [1] [%] | cell viability [2] [%] | cell viability [3] [%] | cell viability [4] [%] | cell viability [5] [%] | cell viability [6] [%] | cell viability [7] [%] | cell viability [8] [%] | cell viability [9] [%] | cell viability [10] [%] | cell viability [11] [%] | cell viability [12] [%] | cell viability [13] [%] | cell viability [14] [%] | cell viability [15] [%] | cell viability [16] [%] | cell viability [17] [%] | cell viability [18] [%] | cell viability [19] [%] | cell viability [20] [%] | cell viability [21] [%] | cell viability [22] [%] | cell viability [23] [%] | cell viability [24] [%] | cell viability [25] [%] | cell viability [26] [%] | cell viability [27] [%] | cell viability [28] [%] | cell viability [29] [%] | cell viability [30] [%] | cell viability [31] [%] | cell viability [32] [%] | cell viability [33] [%]
C=CCc1cccc(/C=N/NC(=O)CN2CCN(Cc3ccccc3)CC2)c1O | 124 | 122 | 128 | 137 | 132 | 124 | 144 | 89.4 | 103 | 29.3 | 8.81 | 124 | 114 | 124 | 122 | 131 | 114 | 131 | 105 | 95.4 | 54.8 | 8.05 |  |  |  |  |  |  |  |  |  |  | 
COc1cccc([C@@H](C)NCCCc2ccccc2Cl)c1 | 88.5 | 90.3 | 95.2 | 105 | 106 | 95.8 | 81.8 | 97.6 | 107 | 96.3 | 101 | 82.6 | 100 | 79.9 | 100 | 94 | 94.9 | 84.2 | 78.7 | 97.4 | 100 | 93.5 | 81.2 | 112 | 92 | 101 | 94 | 114 | 97.2 | 95.1 | 98.6 | 108 | 99.6
COc1ccc([C@@H]2CC(=O)c3c(O)cc(O[C@@H]4O[C@H](CO[C@@H]5O[C@@H](C)[C@H](O)[C@@H](O)[C@H]5O)[C@@H](O)[C@H](O)[C@H]4O)cc3O2)cc1O | 99.2 | 101 | 93.9 | 93.2 | 113 | 48 | 110 | 116 | 125 | 108 | 123 | 105 | 86.6 | 98.4 | 93.4 | 112 | 58.5 | 107 | 91.3 | 107 | 113 | 120 | 112 | 107 | 106 | 114 | 110 | 54.7 | 127 | 114 | 132 | 137 | 119
Cc1cnc(C(=O)O)c[n+]1[O-] |  |  |  |  |  |  |  |  |  |  |  | 77.1 | 88.9 | 81 | 87 | 85.7 | 92.1 | 101 | 87.3 | 99.5 | 87.8 | 72.6 | 121 | 118 | 92.7 | 112 | 135 | 126 | 133 | 128 | 120 | 114 | 99.3
COC(=O)C1C2CC3c4[nH]c5cc(OC)ccc5c4CCN3CC2CC(OC(=O)c2cc(OC)c(OC)c(OC)c2)C1OC (stereo unspecified) | 116 | 120 | 119 | 125 | 130 | 119 | 141 | 115 | 116 | 117 | 105 | 97.2 | 120 | 102 | 107 | 113 | 102 | 104 | 112 | 94.8 | 85.2 | 91.4 | 116 | 110 | 113 | 105 | 104 | 134 | 124 | 135 | 128 | 82.1 | 86.6
CCCCCCCCCC(=O)N[C@@H](Cc1c[nH]c2ccccc12)C(=O)N[C@H](CC(N)=O)C(=O)N[C@@H](CC(=O)O)C(=O)N[C@@H]1C(=O)NCC(=O)N[C@@H](CCCN)C(=O)N[C@@H](CC(=O)O)C(=O)N[C@H](C)C(=O)N[C@@H](CC(=O)O)C(=O)NCC(=O)N[C@H](CO)C(=O)N[C@@H]([C@@H](C)CC(=O)O)C(=O)N[C@@H](CC(=O)c2ccccc2N)C(=O)O[C@@H]1C | 81.6 | 101 | 98.3 | 108 | 93.4 | 108 | 121 | 114 | 116 | 107 | 101 | 103 | 103 | 123 | 114 | 105 | 120 | 121 | 102 | 116 | 119 | 120 | 102 | 105 | 94.8 | 103 | 123 | 104 | 117 | 103 | 109 | 105 | 102
CCCCC(C=O)NC(=O)C(CC(C)C)NC(=O)OCc1ccccc1 (stereo unspecified) | 93.8 | 99.8 | 90.6 | 105 | 98.5 | 58 | 99.1 | 102 | 92.1 | 81.1 | 57 | 110 | 87.2 | 94.2 | 102 | 110 | 88.7 | 91.8 | 90.9 | 84.3 | 85.1 | 52.6 | 93.8 | 82.8 | 78.1 | 89.1 | 86.2 | 66.2 | 96.7 | 94.5 | 84.8 | 71.1 | 47.9
Cc1cc(C(=O)N2CCN(c3cccc(Cl)c3)CC2)n(-c2ccccc2)n1 | 109 | 96.7 | 102 | 102 | 109 | 96 | 92.5 | 52.6 | 25.5 | 21.7 | 18.2 | 107 | 118 | 116 | 122 | 107 | 110 | 120 | 81.5 | 34.8 | 17.5 | 15.6 | 105 | 103 | 112 | 89.4 | 114 | 100 | 93.3 | 61.1 | 24.4 | 19.5 | 18.3
CN(C)CC[C@H](c1ccc(Cl)cc1)c1ccccn1 | 70.8 | 72.6 | 79.4 | 78.8 | 86.1 | 73.7 | 82.2 | 75.2 | 89.5 | 83.8 | 72.3 | 80.6 | 74.3 | 91 | 92.4 | 88.6 | 95.3 | 100 | 87.2 | 101 | 92.7 | 101 | 78.9 | 83.4 | 82.4 | 86 | 87.1 | 95.4 | 80.5 | 87.3 | 104 | 93.2 | 75.1
[O-]C(=O)C1=C(C(=C(Cl)C(=C1Cl)Cl)Cl)C/2=C/3\C=C(I)/C(=O)/C(=C3OC4=C2C=C(I)C(=C4I)[O-])I | 111 | 106 | 122 | 106 | 118 | 111 | 120 | 116 | 106 | 109 | 73 | 108 | 121 | 130 | 133 | 134 | 113 | 115 | 130 | 114 | 109 | 83.2 |  |  |  |  |  |  |  |  |  |  | 
COC1=C2C[C@@H](C)C[C@H](OC)[C@H](O)[C@@H](C)/C=C(\C)[C@H](OC(N)=O)[C@@H](OC)/C=C/C=C(\C)C(=O)NC(=CC1=O)C2=O | 122 | 115 | 125 | 127 | 117 | 123 | 101 | 115 | 100 | 6.39 | 5.09 |  |  |  |  |  |  |  |  |  |  |  | 110 | 105 | 102 | 108 | 97.2 | 95.8 | 99.7 | 114 | 72.2 | 5.54 | 4.75
CC[C@]12\C=C/CN3CC[C@]4([C@@H](N(C)C5=CC(=C(C=C45)[C@]6(C[C@H]7C[C@H](CN(C7)CC8=C6[NH]C9=C8C=CC=C9)C(C)(F)F)C(=O)OC)OC)[C@](O)([C@@H]1OC(C)=O)C(=O)OC)[C@H]23 | 107 | 97.9 | 94.9 | 74.6 | 29.3 | 21.1 | 22 | 22 | 25 | 17.8 | 6.8 | 120 | 120 | 87.4 | 76.9 | 18.7 | 18.8 | 17.3 | 20.2 | 15.6 | 11.3 | 6.89 | 95.3 | 83 | 74.5 | 68.9 | 43.2 | 21.2 | 16.9 | 18.9 | 21 | 15.3 | 5.17
c1ccc(CNc2nc(N3CCOc4ccccc43)nc3c2CCCC3)cc1 | 87 | 94.6 | 88.7 | 96.9 | 102 | 109 | 93.3 | 106 | 98.5 | 89.9 | 83.2 | 91 | 88.6 | 87 | 89.4 | 101 | 96.2 | 89.5 | 95.9 | 91.4 | 77.7 | 71 | 75 | 91.3 | 96.5 | 96.8 | 95.5 | 103 | 106 | 108 | 94.5 | 82.7 | 82.9
NC(=O)c1cccc2nc(-c3ccc([C@H]4CCCN4)cc3F)[nH]c12 | 86.3 | 93.6 | 116 | 113 | 113 | 110 | 109 | 86.9 | 61.6 | 39.8 | 21.8 | 81.3 | 80.4 | 103 | 93.7 | 98.6 | 97.9 | 98.3 | 70.4 | 45.9 | 31.8 | 15.3 | 86.2 | 103 | 111 | 85.7 | 87.8 | 109 | 93.1 | 64.8 | 36.3 | 29.6 | 9
COc1ccc(Nc2nccc(NCCO)n2)cc1 | 61.7 | 67.9 | 61.4 | 75.8 | 81.4 | 69.6 | 63.7 | 78.6 | 64 | 75.4 | 64.7 | 75.9 | 80.1 | 78 | 87.4 | 77.1 | 79 | 78.3 | 85.1 | 42.1 | 91.5 | 92.9 | 64.5 | 65.3 | 73.3 | 95 | 91.8 | 78.6 | 81.4 | 74.7 | 74.1 | 92.5 | 68.2

From the supplement of paper PMC11451515
